Data on seven molecules can be found in patent EP2687213B1, “Solid forms comprising (+)-2-[1-(3-ethoxy-4-methoxyphenyl)-2-methylsulfonylethyl]-4-acetylaminoisoindoline-1,3-dione, compositions thereof, and uses thereof” (CELGENE CORPORATION, priority 2008, dated 2009).

Data set [1] can be described thus: Solid form stability studies (XRPD). The format is physicochemical. The procedure:
Stability Studies. The stabilities of Forms A, B, C and D were studied by exposing the solid samples to the stress condition of 40 °C / 75% RH for four weeks. Moreover, the stabilities of Forms A, B, C and D in different solvents were studied by equilibration in different solvents at 40 °C for four weeks. The slurries then were filtered and dried in the air. Solid samples obtained from the stability experiments were analyzed by XRPD and DSC.

Data set [2] can be described thus: Solid form interconversion studies (slurry, XRPD). The format is physicochemical. As to conditions: EQ in acetone:ethanol (1:1) at 25 °C, at least 2 days. The procedure: Interconversion Studies. Interconversion experiments were performed by making slurries of a solid form in a saturated solvent. The slurries were agitated for at least 2 days at about 25 °C. The saturated solution was removed by filtration and the solid was dried in the air.

Data set [3] is described as follows: Hygroscopicity studies (DVS moisture sorption/desorption). The format is physicochemical. As to conditions: for solid-state transformation after full adsorption/desorption cycle (XRPD): DVS, 0% to 95% RH and back; for mass change of the starting mass of the sample: RH increased from about 0% to about 95% RH, about 25 °C; for hygroscopicity: moisture sorption analysis, 0% to 95% RH. The procedure:
Hygroscopicity studies. The hygroscopicity of various solid forms was studied using a Surface Measurement Systems DVS instrument. Typically a sample size of between about 10-50 mg was loaded into the DVS instrument sample pan and the sample was analyzed on a DVS automated sorption analyzer at about 25 °C. The relative humidity was increased in increments of about 10% from about 0% to about 95% RH. The relative humidity was then decreased in a similar manner to accomplish a full adsorption/desorption cycle. The mass was recorded at periodic intervals throughout the experiment.

The nature of data set [4]: Compression studies (2000 psi, XRPD). The note with it: 2000 psi for at least one minute.
Setting [5] is: EQ in ethanol at 40 °C for 4 weeks.
The mark [6] stands for this setting: EQ in heptane at 40 °C for 4 weeks.
The mark [7] stands for this setting: EQ in toluene at 40 °C for 4 weeks.
Where [8] appears, read: EQ in water at 40 °C for 4 weeks.

Entries after “also recorded” stand apart in the source; their conditions may differ.

`CCOc1cc(C(CS(C)(=O)=O)N2C(=O)c3cccc(NC(C)=O)c3C2=O)ccc1OC` (single isomer, unassigned; (+)) [Form C, (+)-2-[1-(3-ethoxy-4-methoxyphenyl)-2-methylsulfonylethyl]-4-acetylaminoisoindoline-1,3-dione]: the “Analysis by XRPD (resulting form)” value is recorded as “stable” in data set [1] (40 °C / 75% RH, 4 weeks); “stable” in data set [1] (setting [5]); “stable” in data set [1] (setting [6]); “stable” in data set [1] (setting [7]); “stable” in data set [1] (setting [8]); “Form C” in data set [2]. For the same molecule, the “solid-state transformation after full adsorption/desorption cycle (XRPD)” value in data set [3] is listed as “none of the forms analyzed underwent substantial solid-state transformation”. In addition, the “mass change of the starting mass of the sample” value (“mass change” below) in data set [3] is recorded as “about 0.5%”. Further, the hygroscopicity entry in data set [3] is “substantially nonhygroscopic”. In data set [4], the “physical stability upon compression (XRPD)” value is “substantially physically stable”.
In the case of `CCOc1cc(C(CS(C)(=O)=O)N2C(=O)c3cccc(NC(C)=O)c3C2=O)ccc1OC` (single isomer, unassigned; (+)) [Form G, (+)-2-[1-(3-ethoxy-4-methoxyphenyl)-2-methylsulfonylethyl]-4-acetylaminoisoindoline-1,3-dione], the “Analysis by XRPD (resulting form)” value in data set [2] is “converts to Form B”. For the same molecule, in data set [3], the “solid-state transformation after full adsorption/desorption cycle (XRPD)” value is “none of the forms analyzed underwent substantial solid-state transformation”, the “mass change” value is recorded as “about 0.4%” and the hygroscopicity entry is given as “substantially nonhygroscopic”.
On to `CCOc1cc(C(CS(C)(=O)=O)N2C(=O)c3cccc(NC(C)=O)c3C2=O)ccc1OC` (single isomer, unassigned; (+)) [Form B, (+)-2-[1-(3-ethoxy-4-methoxyphenyl)-2-methylsulfonylethyl]-4-acetylaminoisoindoline-1,3-dione], for which the “Analysis by XRPD (resulting form)” value is “stable” in data set [1] (40 °C / 75% RH, 4 weeks); “stable” in data set [1] (setting [5]); “stable” in data set [1] (setting [6]); “converts to Form C” in data set [1] (setting [7]); “stable” in data set [1] (setting [8]). In addition, in data set [3], the “solid-state transformation after full adsorption/desorption cycle (XRPD)” value is on record as “none of the forms analyzed underwent substantial solid-state transformation”. Further, the “mass change” value in data set [3] was “about 0.6%”. Besides, in data set [3], the hygroscopicity entry is reported as “substantially nonhygroscopic”. Moreover, the “physical stability upon compression (XRPD)” value in data set [4] was “substantially physically stable”.
`CCOc1cc(C(CS(C)(=O)=O)N2C(=O)c3cccc(NC(C)=O)c3C2=O)ccc1OC` (single isomer, unassigned; (+)) [Form F, (+)-2-[1-(3-ethoxy-4-methoxyphenyl)-2-methylsulfonylethyl]-4-acetylaminoisoindoline-1,3-dione]: the “Analysis by XRPD (resulting form)” value in data set [2] is listed as “stable; also recorded: Form F”. In data set [3], the “solid-state transformation after full adsorption/desorption cycle (XRPD)” value is listed as “none of the forms analyzed underwent substantial solid-state transformation”, the “mass change” value is listed as “about 0.2%” and the hygroscopicity entry is reported as “substantially nonhygroscopic”.
The matching figures for `CCOc1cc(C(CS(C)(=O)=O)N2C(=O)c3cccc(NC(C)=O)c3C2=O)ccc1OC` (single isomer, unassigned; (+)) [Form E, (+)-2-[1-(3-ethoxy-4-methoxyphenyl)-2-methylsulfonylethyl]-4-acetylaminoisoindoline-1,3-dione]: “Form B”, “none of the forms analyzed underwent substantial solid-state transformation”, “about 5.1%” and “hygroscopic”.
With `CCOc1cc(C(CS(C)(=O)=O)N2C(=O)c3cccc(NC(C)=O)c3C2=O)ccc1OC` (single isomer, unassigned; (+)) [Form D, (+)-2-[1-(3-ethoxy-4-methoxyphenyl)-2-methylsulfonylethyl]-4-acetylaminoisoindoline-1,3-dione], the “Analysis by XRPD (resulting form)” value in data set [1] (40 °C / 75% RH, 4 weeks) was “stable”; in data set [1] (setting [5]), “converts to Form B”; in data set [1] (setting [6]), “converts to Form B”; in data set [1] (setting [7]), “converts to Form C”; in data set [1] (setting [8]) it was “converts to Form B”; in data set [2], “Form B”. Also, the “solid-state transformation after full adsorption/desorption cycle (XRPD)” value in data set [3] was “none of the forms analyzed underwent substantial solid-state transformation”. For the same molecule, the “mass change” value in data set [3] is on record as “about 1.5%”. Moreover, the hygroscopicity result in data set [3] is reported as “slightly hygroscopic”. Further, in data set [4], the “physical stability upon compression (XRPD)” value is reported as “substantially physically stable”.
Regarding `CCOc1cc(C(CS(C)(=O)=O)N2C(=O)c3cccc(NC(C)=O)c3C2=O)ccc1OC` (single isomer, unassigned; (+)) [Form A, (+)-2-[1-(3-ethoxy-4-methoxyphenyl)-2-methylsulfonylethyl]-4-acetylaminoisoindoline-1,3-dione], the “Analysis by XRPD (resulting form)” value in data set [1] (40 °C / 75% RH, 4 weeks) was “stable”; in data set [1] (setting [5]) it was “stable”; in data set [1] (setting [6]), “stable”; in data set [1] (setting [7]), “converts to Form C”; in data set [1] (setting [8]) it was “stable”; in data set [2], “Form B”. The “solid-state transformation after full adsorption/desorption cycle (XRPD)” value in data set [3] is recorded as “none of the forms analyzed underwent substantial solid-state transformation”. Moreover, the “mass change” value in data set [3] was “about 0.4%”. In addition, the hygroscopicity result in data set [3] is recorded as “substantially nonhygroscopic”. The “physical stability upon compression (XRPD)” value in data set [4] is “substantially physically stable”.
